Like-named read-outs stand apart in the source and are kept apart here.
Legend:
[1] = Inhibition of spontaneous nystagmus produced by unilateral destruction of the labyrinth (anti-vertigo action); assay type: in vivo; conditions: cats
Experimental: (1) It is well known that vertigo resulting from the disturbance of the peripheral labyrinth is accompanied by nystagmus. So, we acutely produced the spontaneous nystagmus by unilateral destruction of the labyrinth in cats and used it as an experimental model of vertigo. a pair of Ag--AgCl cup electrodes was placed laterally to both orbits and an indifferent electrode on the forehead. The nystagmus was recorded through an amplifier. The inhibitory effect of the compounds on the nystagmus was expressed by [formula] where A is the frequency of the nystagmus in ten seconds before administration of the compounds and B is the frequency of the nystagmus at the maximum inhibitory point after administration. The duration of the effect was also measured. Compounds dissolved in saline were injected into the femoral vein. Betahistine and diphenidol were used as standard drugs.
A: Doses of compounds injected intraveneously.
B: Effect of compounds on the nystagmus expressed as inhibitory
C: Duration of the effect of compounds

[2] = Acute toxicity (LD50) by intraperitoneal injection; conditions: mouse, in vivo, ip; male mice, intraperitoneal injection (Table 3)
Experimental: LD50 values of the compounds by intraperitoneal injection in mice were determined.

[3] = mouse, in vivo, 50 mg/kg
Experimental: (§1) Groups consisted of 10 male-mice were administered the compounds or saline subcutaneously 15 min. prior to an intraperitoneal injection of sodium hexobarbital. Sleeping time for each animal in a group was measured. The averaged value of sleeping time in each group was calculated. The action of the sleeping time was expressed by the percentage of the sleeping time in the compound-treated groups to that in the saline-treated group.
(§2) D: Sleeping time of the compound (50 mg/kg, subcutaneously)treated groups
(§3) expressd as percentage to that of the control group.

[4] = Effect on the hexobarbital-induced sleeping time; conditions: male mice, 50 mg/kg subcutaneously, 15 min prior to sodium hexobarbital i.p.
Experimental: as §1, §2, §3

[5] = Felis catus, iv, 6 mg/kg injected intravenously, read-out: Effect of compounds on the nystagmus expressed as inhibitory percentage

Row | Structure (SMILES) | inhibition at 6 mg/kg [1, 5] [%] | Duration of the effect of compounds (nystagmus) ([1]; 6 mg/kg injected intravenously) [min] | LD50 [2] [mg/kg] | Sleeping time of the compound treated groups expressed as percentage to that of the control group [3] [%] | inhibition at 12 mg/kg ([1]; Felis catus, iv, 12 mg/kg injected intravenously, read-out: Effect of compounds on the nystagmus expressed as inhibitory percentage) [%] | Duration of the effect of compounds (nystagmus) ([1]; 12 mg/kg injected intravenously) [min] | Sleeping time of the compound treated groups expressed as percentage to that of the control group [4] [%]
1 | OC(CCCN1CCCCC1)(c1ccccc1)c1ccccc1 [diphenidol, reference compound] | 70 | 45 | 105 | 253.7 | – | – | –
2 | c1cnc2c(c1)CN(CC1CC1)CC2 [Compound 22] | 85 | 19 | 176 | – | 98 | 35 | 114.4

Reference: patent publication US4308273A, “1,6-Naphthyridine derivatives, and antidinic and cerebral circulation improver containing such derivatives” (Nippon Kayaku Kabushiki Kaisha, priority 1978, dated 1981)
